Results on 1 compound are retold here after BindingDB's records for doi:10.1016/j.bmc.2012.05.002 (Seoul National University, 2012).

The experiment has as its target T1, Sortase family protein (Staphylococcus aureus, UniProt Q9S446).
T1 sequence (Q9S446 whole entry): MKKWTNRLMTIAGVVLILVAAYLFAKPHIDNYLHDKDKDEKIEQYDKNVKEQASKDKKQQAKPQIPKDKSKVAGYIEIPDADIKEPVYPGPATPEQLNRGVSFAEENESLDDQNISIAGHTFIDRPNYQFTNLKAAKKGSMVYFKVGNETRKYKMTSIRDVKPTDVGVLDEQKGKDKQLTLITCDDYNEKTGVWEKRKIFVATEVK
Briefly: Inhibition of Staphylococcus aureus ATCC 6538p recombinant SrtA.

By IC50 is commonly meant the concentration that inhibits the measured activity by half. For `O=C(O)c1cc[c]([Hg][OH])cc1`, the concentration for half-maximal inhibition (IC50) was found to be 112 µM.
